Results on 52 compounds are retold here after ChEMBL document CHEMBL5725801, “Fused heterocyclic compounds as CaM kinase inhibitors” (2018).

The first experiment is described as follows: CaMKII delta Biochemical Assay: The biochemical activity of recombinant CaMKIIδ was measured by monitoring the phosphorylation of a target peptide using Homogenous Time Resolved Fluorescence (HTRF) technology from CisBio Bioassays. 10 pM […] (Life Technologie Corporation) was incubated for 1 hour with 110 nM calmodulin (EMD Millipore), 1 μM Biotin-STK1 (target peptide, CisBio Bioassays) and 12 μM ATP (Sigma-Aldrich) in a buffer containing 20 mM Hepes pH7.2, 10 mM MgCl2 and 1 mM CaCl2 as well as the compound to be tested or DMSO at a final concentration of 0.6%. The reaction was stopped with the addition of the detection buffer (containing EDTA) with Eu-cryptate labeled anti-phospho-STK1 antibody (CisBio Bioassays) and 125 nM XL665 labeled streptavidin (CisBio Bioassays). In general terms: Time-resolved FRET reads energy transfer from a long-lived donor to a nearby acceptor.
Consider `CCN1C[C@@H](F)C[C@H]1CNC(=O)c1ccnc(-c2cnn3ccc(-c4cccs4)nc23)c1`, for which the IC50 – broadly, the midpoint of a concentration-inhibition curve – is 7.07 nM.

The nature of the next experiment: CaMKII Cell-Based Activity: CaMKII activity in neonatal rat ventricular myocytes (NRVM) was measured by monitoring the phosphorylation level of phospholamban using high-content imaging. NRVMs were plated in a clear bottom 384-well plate in medium supplemented with 10% fetal bovine serum (FBS) and incubated at 37° C., 5% CO2 overnight. The medium was changed to a serum-free medium and compounds were dosed to the cells. The cells were incubated at 37° C., 5% CO2 for 4 hours and were then treated with 100 nM ATX-II (Alomone Labs) to activate CaMKII. 10 minutes after the addition of ATX-II, the cells were fixed with 4% formaldehyde followed by permeabilization with 0.1% triton X100. The fixed cells were stained with an anti-phospho-phospholamban primary antibody (Santa Cruz Biotechnology) and an Alexa488-labeled anti-rabbit IgG secondary antibody (Life Technologies Corporation) as well as Hoechst 33342 (Life Technologies Corporation). The cells were imaged using an ArrayScan VTI (Cellomics) and analyzed for cells containing a positive fluorescent signal at 485 nm, reported as % responder. The % responders were plotted against the compound concentration to determine the compounds EC50.
Consider `CCN(CC)[C@@H](C)CNC(=O)c1cc(OCCOC)nc(-c2cnn3ccc(-c4cccs4)nc23)c1`, for which a half-maximal response (EC50) required 32 nM.

Consider `CCN(CC)[C@@H](C)CNC(=O)c1cc(-c2cnn3ccc(-c4cccs4)nc23)nc(N2CC[C@@H](N)C2)c1`, for which the response was half-maximal at 68.8 nM (EC50).

On to `CCN(CC)[C@@H](C)CNC(=O)c1cc(O[C@H]2CCOC2)nc(-c2cnn3ccc(-c4cccs4)nc23)c1`, for which the midpoint of the response, the EC50, lay at 57.1 nM.

In the case of `COC1CN(c2cc(C(=O)N3[C@H]4CCNC[C@@H]3CC4)cc(-c3cnn4ccc(-c5cccs5)nc34)n2)C1`, the midpoint of the response, the EC50, lay at 148 nM.

Turning to `COC1CN(c2cc(C(=O)N3CC[C@H](N)C3)cc(-c3cnn4ccc(-c5cccs5)nc34)n2)C1`, the EC50 (usually the concentration that produces a half-maximal response) was found to be 154 nM.

`CCN(CC)[C@@H](C)CNC(=O)c1cc(-c2cnn3ccc(-c4cccs4)nc23)nc(N2CC[C@H](C(=O)NC)C2)c1` displayed an EC50 of 69.3 nM.

With `CCN(CC)[C@@H](C)CNC(=O)c1cc(-c2cnn3ccc(-c4ccns4)nc23)nc(N2CC[C@H]2C(=O)NC)c1`, the response was half-maximal at 32.7 nM (EC50).

In the case of `CCN(CC)[C@@H](C)CNC(=O)c1cc(O[C@@H]2CCOC2)nc(-c2cnn3ccc(-c4cccs4)nc23)c1`, the EC50 stood at 66.2 nM.

On to `CCC(CNC(=O)c1cc(-c2cnn3ccc(-c4cccs4)nc23)nc(N2CC[C@H]2C(=O)NC)c1)N(CC)CC` (stereo partly drawn), for which the EC50 came to 36.8 nM.

`CCN(CC)[C@@H](C)CNC(=O)c1cc(OCC(C)(C)O)nc(-c2cnn3ccc(-c4cccs4)nc23)c1` came in with an EC50 of 38.4 nM.

The compound `CCN1C[C@@H](F)C[C@H]1CNC(=O)c1ccnc(-c2cnn3ccc(-c4cccs4)nc23)c1` had an EC50 of 53.4 nM.

In turn, `CCN(CC)[C@@H](C)CNC(=O)c1cc(OCC2(C)COC2)nc(-c2cnn3ccc(-c4cccs4)nc23)c1` had an EC50 of 55.3 nM.

In the case of `CC(C)(O)CNc1cc(C(=O)N2CC3CCC(C2)NC3)cc(-c2cnn3ccc(-c4cccs4)nc23)n1` (stereo not drawn), a half-maximal response (EC50) required 406 nM.

For `CCN(CC)[C@@H](C)CNC(=O)c1cccc(-c2cnn3ccc(-c4cccs4)nc23)n1`, the EC50 is 103 nM.

`CN(CCn1ccnc1)c1cc(C(=O)N2CC3CCC(C2)NC3)cc(-c2cnn3ccc(-c4cccs4)nc23)n1` (stereo not drawn) gave an EC50 of 449 nM.

For `CCCN(CC)[C@@H](C)CNC(=O)c1cc(-c2cnn3ccc(-c4cccs4)nc23)nc(N2CC[C@H]2C(=O)NC)c1`, a half-maximal effect (EC50) was put at 13.6 nM.

For `CCN(CC)[C@@H](C)CNC(=O)c1cc(-c2c(C)n[nH]c2C)nc(-c2cnn3ccc(-c4cccs4)nc23)c1`, the EC50 turned out to be 9.37 nM.

The compound `CCN(CC)[C@@H](C)CNC(=O)c1cc(OCCCOC)nc(-c2cnn3ccc(-c4cccs4)nc23)c1` gave a concentration giving a half-maximal response (EC50) of 37.8 nM.

The compound `CCN(CC)[C@@H](C)CNC(=O)c1cc(-c2c[nH]nc2C(F)(F)F)nc(-c2cnn3ccc(-c4cccs4)nc23)c1` showed an EC50 of 20.3 nM.

In turn, `COC1CN(c2cc(C(=O)N3C4CC[C@@H]3CCNC4)cc(-c3cnn4ccc(-c5ccccc5)nc34)n2)C1` yielded an EC50 of 272 nM.

Consider `CCN(CC)[C@@H](C)CNC(=O)c1cc(-c2cnn3ccc(-c4ccc(F)s4)nc23)nc(N2CC[C@H]2C(=O)NC)c1`, for which a half-maximal effect (EC50) was put at 10 nM.

The compound `CCN(CC)[C@@H](C)CNC(=O)c1cc(OCc2cccnc2)nc(-c2cnn3ccc(-c4cccs4)nc23)c1` came in with an EC50 of 56.1 nM.

Turning to `CCN(CC)[C@@H](C)CNC(=O)c1cc(-c2cnn3ccc(-c4cccs4)nc23)nc(N2CC[C@H](N)C2)c1`, the response was half-maximal at 68.7 nM (EC50).

In the case of `CCN(CC)[C@@H](C)CNC(=O)c1cc(-c2cnn3ccc(-c4cccs4)nc23)nc(N2CCC[C@@H]2C(=O)NC)c1`, the EC50 worked out at 815 nM.

In the case of `O=C(c1cc(-c2cnn3ccc(-c4cccs4)nc23)nc(N2CCN(C3COC3)CC2)c1)N1CC2CCC(C1)NC2` (stereo not drawn), it took 81.8 nM to reach a half-maximal effect (EC50).

On to `COC1CN(c2cc(C(=O)N3CC[C@H](N)C3)cc(-c3cnn4ccc(-c5ccccc5)nc34)n2)C1`, for which the EC50 amounted to 42.9 nM.

In the case of `CCN(CC)[C@@H](C)CNC(=O)c1cc(-c2cnn3ccc(-c4ccccc4)nc23)nc(N2CC[C@H]2C(=O)NC)c1`, the EC50 worked out at 146 nM.

Regarding `CCN(CC)[C@@H](C)CNC(=O)c1cc(-c2cnoc2)nc(-c2cnn3ccc(-c4cccs4)nc23)c1`, the EC50 was 29.7 nM.

Take `CCN(CC)CCNC(=O)c1cc(-c2cnn3ccc(-c4cccs4)nc23)nc(N2CC[C@H]2C(=O)NC)c1`: the EC50 amounted to 34.7 nM.

With `CCN(CC)[C@@H](C)CNC(=O)c1cncc(-c2cnn3ccc(-c4cccs4)nc23)c1`, a half-maximal effect (EC50) was put at 22 nM.

`CCN(CC)[C@@H](C)CNC(=O)c1cc(OCCc2cnccn2)nc(-c2cnn3ccc(-c4cccs4)nc23)c1` gave an EC50 of 64.2 nM.

Turning to `CCN(CC)[C@@H](C)CNC(=O)c1cc(OC[C@H](C)OC)nc(-c2cnn3ccc(-c4cccs4)nc23)c1`, a half-maximal response (EC50) required 48.4 nM.

`CCN(CC)[C@@H](CO)CNC(=O)c1cc(-c2cnn3ccc(-c4cccs4)nc23)nc(N2CC[C@H]2C(=O)NC)c1` gave an EC50 of 72.9 nM.

In turn, `CCN(CC)[C@@H](C)CNC(=O)c1cc(-c2cnn3ccc(-c4cccs4)nc23)nc(N2CC[C@@H](C(=O)NC)C2)c1` registered an EC50 of 46.9 nM.

In turn, `CC[C@@H](CNC(=O)c1cc(-c2cnn3ccc(-c4cccs4)nc23)nc(N2CC[C@H]2C(=O)NC)c1)N(CC)CCO` yielded an EC50 of 57.6 nM.

`CCN(CC)[C@@H](C)CNC(=O)c1cc(-c2cc[nH]n2)nc(-c2cnn3ccc(-c4cccs4)nc23)c1` showed an EC50 of 14.5 nM.

With `CCN(CC)[C@@H](C)CNC(=O)c1cc(OC[C@H]2CCCO2)nc(-c2cnn3ccc(-c4cccs4)nc23)c1`, it took 27.8 nM to reach a half-maximal effect (EC50).

Compound `CCN(CC)[C@@H](C)CNC(=O)c1cc(-c2cnn3ccc(-c4cccs4)nc23)nc(N2CCNC(=O)C2)c1` yielded a concentration giving a half-maximal response (EC50) of 96 nM.

In the case of `CCN(CC)[C@@H](C)CNC(=O)c1cc(-c2cnn(C)c2)nc(-c2cnn3ccc(-c4cccs4)nc23)c1`, the EC50 turned out to be 8.24 nM.

The compound `CCN(CC)[C@@H](C)CNC(=O)c1cc(OCc2ccc[n+]([O-])c2)nc(-c2cnn3ccc(-c4cccs4)nc23)c1` showed an EC50 of 68.5 nM.

`COC1CN(c2cc(C(=O)N3CC4CCC(C3)NC4)cc(-c3cnn4ccc(-c5cccs5)nc34)n2)C1` (stereo not drawn) returned an EC50 of 63.6 nM.

As for `CCN(CC)[C@@H](C)CNC(=O)c1cc(-c2cn[nH]c2)nc(-c2cnn3ccc(-c4cccs4)nc23)c1`, the EC50 came out at 13.5 nM.

With `COCCNc1cc(C(=O)N2CC3CCC(C2)NC3)cc(-c2cnn3ccc(-c4cccs4)nc23)n1` (stereo not drawn), the EC50 stood at 124 nM.

On to `CCN(CC)[C@@H](C)CNC(=O)c1cc(-c2cnn3ccc(-c4cccs4)nc23)nc(-c2cnn3ccc(-c4cccs4)nc23)c1`, for which it took 794 nM to reach a half-maximal effect (EC50).

As to `CCN(CC)[C@@H](C)CNC(=O)c1cc(OCCN(C)C)nc(-c2cnn3ccc(-c4cccs4)nc23)c1`, it took 115 nM to reach a half-maximal effect (EC50).

Compound `CCN(CC)[C@@H](C)CNC(=O)c1cc(-c2cnn(C3COC3)c2)nc(-c2cnn3ccc(-c4cccs4)nc23)c1` gave an EC50 of 12.3 nM.

Turning to `CCN(CC)[C@@H](C)CNC(=O)c1cc(OCCN2CCOCC2)nc(-c2cnn3ccc(-c4cccs4)nc23)c1`, a half-maximal effect (EC50) was put at 86.8 nM.

Take `CCN(CC)[C@@H](C)CNC(=O)c1cc(-c2c[nH]nc2C)nc(-c2cnn3ccc(-c4cccs4)nc23)c1`: a half-maximal effect (EC50) was put at 70.4 nM.

Compound `COC1CN(c2cc(C(=O)N3CC4CCC(C3)NC4)cc(-c3cnn4ccc(-c5ccccc5)nc34)n2)C1` (stereo not drawn) had an EC50 of 95.6 nM.

Compound `CCN(CC)[C@@H](C)CNC(=O)c1cc(-c2cnn3ccc(-c4cccs4)nc23)nc(N2CCC[C@H]2C(=O)NC)c1` registered an EC50 of 114 nM.

On to `CC[C@@H](CNC(=O)c1cc(-c2cnn3ccc(-c4cccs4)nc23)nc(N2CC[C@H]2C(=O)NC)c1)N(CC)CC` (single isomer, unassigned), for which the EC50 was determined as 37.8 nM.

Regarding `CC[C@H](CNC(=O)c1cc(-c2cnn3ccc(-c4cccs4)nc23)nc(N2CC[C@H]2C(=O)NC)c1)N(CC)CC` (single isomer, unassigned), the EC50 stood at 34.3 nM.
